Reference: PubChem BioAssay (NCI)
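Cultured in 96-well plates, cells were exposed to test compound for 48 hours across five concentrations. GI50: concentration for 50% inhibition of growth. TGI is the concentration that stops growth completely.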

What was measured:
Test in all cases: NCI anticancer screen, dose series, 48 h
A549 NSCLC = test system: A549 NSCLC
MCF7 breast = test system: MCF7 breast
UO-31 renal = test system: UO-31 renal
U251 CNS = test system: U251 CNS
MDA-MB-435 = test system: MDA-MB-435
NCI-H226 lung = test system: NCI-H226 lung
DU-145 prostate = test system: DU-145 prostate
A498 renal = test system: A498 renal
OVCAR-8 ovarian = test system: OVCAR-8 ovarian
M14 melanoma = test system: M14 melanoma
SF-268 CNS = test system: SF-268 CNS
HCT-15 colon = test system: HCT-15 colon
SK-MEL-28 melanoma = test system: SK-MEL-28 melanoma
COLO 205 colon = test system: COLO 205 colon
HCC-2998 colon = test system: HCC-2998 colon
OVCAR-3 ovarian = test system: OVCAR-3 ovarian
BT-549 breast = test system: BT-549 breast
NCI-H460 lung = test system: NCI-H460 lung
786-0 renal = test system: 786-0 renal
NCI-H522 lung = test system: NCI-H522 lung
ACHN renal = test system: ACHN renal
SF-539 CNS = test system: SF-539 CNS
MALME-3M melanoma = test system: MALME-3M melanoma
OVCAR-4 ovarian = test system: OVCAR-4 ovarian
EKVX NSCLC = test system: EKVX NSCLC
KM12 colon = test system: KM12 colon
HOP-62 NSCLC = test system: HOP-62 NSCLC
NCI/ADR-RES ovarian = test system: NCI/ADR-RES ovarian
SK-MEL-5 melanoma = test system: SK-MEL-5 melanoma
RPMI-8226 leukemia = test system: RPMI-8226 leukemia
TK-10 renal = test system: TK-10 renal
HCT-116 colon = test system: HCT-116 colon
MOLT-4 leukemia = test system: MOLT-4 leukemia
RXF 393 renal = test system: RXF 393 renal
SNB-75 CNS = test system: SNB-75 CNS
SK-MEL-2 melanoma = test system: SK-MEL-2 melanoma
SW-620 colon = test system: SW-620 colon
IGROV1 ovarian = test system: IGROV1 ovarian
NCI-H23 lung = test system: NCI-H23 lung
SNB-19 CNS = test system: SNB-19 CNS
SF-295 CNS = test system: SF-295 CNS
T-47D breast = test system: T-47D breast
LOX IMVI melanoma = test system: LOX IMVI melanoma
HL-60(TB) leukemia = test system: HL-60(TB) leukemia
MDA-MB-231 breast = test system: MDA-MB-231 breast
CCRF-CEM leukemia = test system: CCRF-CEM leukemia
CAKI-1 renal = test system: CAKI-1 renal
SK-OV-3 ovarian = test system: SK-OV-3 ovarian
SN12C renal = test system: SN12C renal
UACC-257 melanoma = test system: UACC-257 melanoma
UACC-62 melanoma = test system: UACC-62 melanoma
HT29 colon = test system: HT29 colon
HS 578T breast = test system: HS 578T breast
OVCAR-5 ovarian = test system: OVCAR-5 ovarian
SR leukemia = test system: SR leukemia
K-562 leukemia = test system: K-562 leukemia
PC-3 prostate = test system: PC-3 prostate

CN1CCN(C(=S)SCN2C(=O)c3ccccc3S2(=O)=O)CC1
GI50 (A549 NSCLC): 28.3 µM
TGI (A549 NSCLC): > 100 µM
GI50 (MCF7 breast): 8.29 µM
TGI (MCF7 breast): > 100 µM
GI50 (UO-31 renal): 94.6 µM
TGI (UO-31 renal): > 100 µM
GI50 (U251 CNS): 26.5 µM
TGI (U251 CNS): > 100 µM
GI50 (MDA-MB-435): 28.2 µM
TGI (MDA-MB-435): 99.4 µM
GI50 (NCI-H226 lung): > 100 µM
TGI (NCI-H226 lung): > 100 µM
GI50 (DU-145 prostate): 26.4 µM
TGI (DU-145 prostate): > 100 µM
GI50 (A498 renal): 93 µM
TGI (A498 renal): > 100 µM
GI50 (OVCAR-8 ovarian): 46.3 µM
TGI (OVCAR-8 ovarian): > 100 µM
GI50 (M14 melanoma): 7.93 µM
TGI (M14 melanoma): 22.8 µM
GI50 (SF-268 CNS): 37.4 µM
TGI (SF-268 CNS): > 100 µM
GI50 (HCT-15 colon): 21.3 µM
TGI (HCT-15 colon): 99.1 µM
GI50 (SK-MEL-28 melanoma): 14.4 µM
TGI (SK-MEL-28 melanoma): 37.5 µM
GI50 (COLO 205 colon): 3.48 µM
TGI (COLO 205 colon): 21.3 µM
GI50 (HCC-2998 colon): 30.9 µM
TGI (HCC-2998 colon): 85.3 µM
GI50 (OVCAR-3 ovarian): 21.9 µM
TGI (OVCAR-3 ovarian): 63.2 µM
GI50 (BT-549 breast): > 100 µM
TGI (BT-549 breast): > 100 µM
GI50 (NCI-H460 lung): 17.8 µM
TGI (NCI-H460 lung): 96.1 µM
GI50 (786-0 renal): 12 µM
TGI (786-0 renal): 43 µM
GI50 (NCI-H522 lung): 7.26 µM
TGI (NCI-H522 lung): 34.1 µM
GI50 (ACHN renal): 41.3 µM
TGI (ACHN renal): > 100 µM
GI50 (SF-539 CNS): 36.8 µM
TGI (SF-539 CNS): > 100 µM
GI50 (MALME-3M melanoma): 23.1 µM
TGI (MALME-3M melanoma): 95.8 µM
GI50 (OVCAR-4 ovarian): 23.2 µM
TGI (OVCAR-4 ovarian): 72.3 µM
GI50 (EKVX NSCLC): > 100 µM
TGI (EKVX NSCLC): > 100 µM
GI50 (KM12 colon): 25.3 µM
TGI (KM12 colon): > 100 µM
GI50 (HOP-62 NSCLC): > 100 µM
TGI (HOP-62 NSCLC): > 100 µM
GI50 (NCI/ADR-RES ovarian): 34 µM
TGI (NCI/ADR-RES ovarian): > 100 µM
GI50 (SK-MEL-5 melanoma): 16.1 µM
TGI (SK-MEL-5 melanoma): 38.9 µM
GI50 (RPMI-8226 leukemia): 2.22 µM
TGI (RPMI-8226 leukemia): 6.87 µM
GI50 (TK-10 renal): 43.4 µM
TGI (TK-10 renal): > 100 µM
GI50 (HCT-116 colon): 12.8 µM
TGI (HCT-116 colon): 44.9 µM
GI50 (MOLT-4 leukemia): 5.08 µM
TGI (MOLT-4 leukemia): 25.7 µM
GI50 (RXF 393 renal): 39.5 µM
TGI (RXF 393 renal): > 100 µM
GI50 (SNB-75 CNS): 24.5 µM
TGI (SNB-75 CNS): 92.1 µM
GI50 (SK-MEL-2 melanoma): > 100 µM
TGI (SK-MEL-2 melanoma): > 100 µM
GI50 (SW-620 colon): 9.31 µM
TGI (SW-620 colon): 74.9 µM
GI50 (IGROV1 ovarian): 44.8 µM
TGI (IGROV1 ovarian): > 100 µM
GI50 (NCI-H23 lung): 35.1 µM
TGI (NCI-H23 lung): > 100 µM
GI50 (SNB-19 CNS): > 100 µM
TGI (SNB-19 CNS): > 100 µM
GI50 (SF-295 CNS): > 100 µM
TGI (SF-295 CNS): > 100 µM
GI50 (T-47D breast): 11 µM
TGI (T-47D breast): > 100 µM
GI50 (LOX IMVI melanoma): 11.6 µM
TGI (LOX IMVI melanoma): 36.9 µM
GI50 (HL-60(TB) leukemia): 0.492 µM
TGI (HL-60(TB) leukemia): 20.3 µM
GI50 (MDA-MB-231 breast): 35.3 µM
TGI (MDA-MB-231 breast): > 100 µM
GI50 (CCRF-CEM leukemia): 2.23 µM
GI50 (CAKI-1 renal): 51.9 µM
TGI (CAKI-1 renal): > 100 µM
GI50 (SK-OV-3 ovarian): > 100 µM
TGI (SK-OV-3 ovarian): > 100 µM
GI50 (SN12C renal): 52.5 µM
TGI (SN12C renal): > 100 µM
GI50 (UACC-257 melanoma): 63.9 µM
TGI (UACC-257 melanoma): > 100 µM
GI50 (UACC-62 melanoma): 18.8 µM
TGI (UACC-62 melanoma): 54.1 µM
GI50 (HT29 colon): 4.24 µM
TGI (HT29 colon): 18 µM
GI50 (HS 578T breast): 58.7 µM
TGI (HS 578T breast): > 100 µM
GI50 (OVCAR-5 ovarian): 30.2 µM
TGI (OVCAR-5 ovarian): > 100 µM
GI50 (SR leukemia): 4.04 µM
TGI (SR leukemia): 13.4 µM
GI50 (K-562 leukemia): 14.5 µM
TGI (K-562 leukemia): 94.6 µM
GI50 (PC-3 prostate): 10.8 µM
TGI (PC-3 prostate): 39.2 µM
